According to US20200095236A1, “ANTIBACTERIAL COMPOUNDS” (FORGE THERAPEUTICS, INC., priority 2017, published 2020):
Converted amounts (≈) assume the structure as drawn. Where two headings read alike, the source gives them in different places.

Key:
Format in all cases: cell-based
S. aureus = test: Bacterial susceptibility testing, MIC by broth microdilution (CLSI); conditions: for MIC: Staphylococcus aureus, read-out: S. aureus MIC
Method: (§1) Minimal inhibitory concentrations (MIC) were determined by the broth microdilution method in accordance with the Clinical and Laboratory Standards Institute (CLSI) guidelines. In brief, organism suspensions were adjusted to a 0.5 McFarland standard to yield a final inoculum between 3×10^5 and 7×10^5 colony-forming units (CFU)/mL. Drug dilutions and inocula were made in sterile, cation adjusted Mueller-Hinton Broth (Beckton Dickinson). An inoculum volume of 100 μL was added to wells containing 100 μL of broth with 2-fold serial dilutions of drug. All inoculated microdilution trays were incubated in ambient air at 35° C. for 18-24 h. Following incubation, the lowest concentration of the drug that prevented visible growth (OD600 nm<0.05) was recorded as the MIC. Performance of the assay was monitored by the use of laboratory quality-control strains and levofloxacin, a compound with a defined MIC spectrum, in accordance with CLSI guidelines.

K. pneumoniae = test: as above; conditions: for MIC: Klebsiella pneumoniae, read-out: K. pneumoniae MIC
Method: as §1

E. coli = test: as above; conditions: for MIC: Escherichia coli, read-out: E. coli MIC
Method: as §1

[1] = system: TLR-4 activity of A. baumannii culture supernatants; test: TLR4 assay: TLR4 activity of A. baumannii culture supernatants in HEK-Blue-hTLR4 cells; conditions: Acinetobacter baumannii, HEK-Blue hTLR4, read-out: % TLR-4 activity
Method: The TLR4 assay measures activity of diluted filter-sterilized A. baumannii culture supernatants. The assay was performed as described in Lin et al, Mbio, 2012. Briefly, A. baumannii was passaged to mid log-phase in the presence of Forge LpxC inhibitors. Culture supernatants were harvested, filter-sterilized and diluted 1:1000. TLR4 activity of the supernatants was tested using HEK-Blue-hTLR4 cells (Invivogen) that carry NF-kB and AP-1 driven SEAP (secreted embryonic alkaline phosphatase) reporter gene.
Exemplary TLR4 assay data (% TLR-4 activity) for compounds in embodiments of the disclosure.

[2] = broth microdilution, 35° C., 18-24 h

SMILES	MIC (S. aureus; [2]) [µg/mL]	MIC (K. pneumoniae; [2]) [µg/mL]	MIC (E. coli; [2]) [µg/mL]	also measured
O=C(CF)NCC(Cc1ccc(C#Cc2ccc(CN3CCCC3)cc2)cc1)c1nc[nH]c(=O)c1O (centres unmarked) [Compound 44, 2-fluoro-N-(2-(5-hydroxy-6-oxo-1,6-dihydropyrimidin-4-yl)-3-(4-((4-(pyrrolidin-1-ylmethyl)phenyl)ethynyl)phenyl)propyl)acetamide]	–	–	–	MIC (S. aureus): > 32 µg/mL; MIC (K. pneumoniae): > 32 µg/mL; MIC (E. coli): > 32 µg/mL
CC(NC(=O)CF)C(Cc1ccc(C#Cc2ccc(CN3CCOCC3)cc2)cc1)c1nc[nH]c(=O)c1O (centres unmarked) [Compound 42, 2-fluoro-N-(3-(5-hydroxy-6-oxo-1,6-dihydropyrimidin-4-yl)-4-(4-((4-(morpholinomethyl)phenyl)ethynyl)phenyl)butan-2-yl)acetamide]	–	–	–	MIC (S. aureus): > 32 µg/mL; MIC (K. pneumoniae): > 32 µg/mL; MIC (E. coli): > 32 µg/mL
O=c1[nH]cnc(CCc2ccc(C#Cc3ccc(CNC4CCOC4)cc3)cc2)c1O (centres unmarked) [Compound 241, 5-hydroxy-6-(4-((4-(((tetrahydrofuran-3-yl)amino)methyl)phenyl)ethynyl)phenethyl)pyrimidin-4(3H)-one]	> 32	< 1	< 1	–
O=c1[nH]cnc(C(CNCCc2cccnc2)Cc2ccc(C#Cc3ccc(CN4CCOCC4)cc3)cc2)c1O (centres unmarked) [Compound 251, 5-hydroxy-6-(1-(4-((4-(morpholinomethyl)phenyl)ethynyl)phenyl)-3-((2-(pyridin-3-yl)ethyl)amino)propan-2-yl)pyrimidin-4(3H)-one]	–	> 32	> 32	–
O=c1[nH]cnc(C(Cc2ccc(C#Cc3ccc(CN4CCOCC4)cc3)cc2)CN2CCOCC2)c1O (centres unmarked) [Compound 249, 5-hydroxy-6-(1-morpholino-3-(4-((4-(morpholinomethyl)phenyl)ethynyl)phenyl)propan-2-yl)pyrimidin-4(3H)-one]	–	> 32	< 1	–
CCCNCC(Cc1ccc(C#Cc2ccc(CN3CCOCC3)cc2)cc1)c1nc[nH]c(=O)c1O (centres unmarked) [Compound 60, 5-hydroxy-6-(1-(4-((4-(morpholinomethyl)phenyl)ethynyl)phenyl)-3-(propylamino)propan-2-yl)pyrimidin-4(3H)-one]	–	–	–	activity at 4 µg/mL [1]: > 80%; activity at 8 µg/mL [1]: > 80%; activity at 16 µg/mL [1]: > 80%
NCCNC(=O)C(Cc1ccc(C#Cc2ccc(CN3CCOCC3)cc2)cc1)c1nc[nH]c(=O)c1O (centres unmarked) [Compound 10, N-(2-aminoethyl)-2-(5-hydroxy-6-oxo-1,6-dihydropyrimidin-4-yl)-3-(4-((4-(morpholinomethyl)phenyl)ethynyl)phenyl) propanamide]	> 32	8 to 32 (≈ 15.9 to 63.8 µM)	1 to 8 (≈ 1.99 to 15.9 µM)	–
O=c1[nH]cnc(CCc2ccc(C#Cc3ccc(CN4CCOCC4)cc3F)cc2)c1O [Compound 185, 6-(4-((2-fluoro-4-(morpholinomethyl)phenyl)ethynyl)phenethyl)-5-hydroxypyrimidin-4(3H)-one]	> 32	< 1	< 1	–
O=c1[nH]cnc(C2(Cc3ccc(C#Cc4ccc(CN5CCOCC5)cc4)cc3)CC2)c1O [Compound 246, 5-hydroxy-6-(1-(4-((4-(morpholinomethyl)phenyl)ethynyl)benzyl)cyclopropyl)pyrimidin-4(3H)-one]	–	> 32	> 32	–
O=c1[nH]cnc(C2(Cc3ccc(C#Cc4ccc(CN[C@@H]5CCOC5)cc4)cc3)CC2)c1O [Compound 247, (R)-5-hydroxy-6-(1-(4-((4-(((tetrahydrofuran-3-yl)amino)methyl)phenyl)ethynyl)benzyl)cyclopropyl)pyrimidin-4(3H)-one]	–	8 to 32 (≈ 18.1 to 72.5 µM)	1 to 8 (≈ 2.26 to 18.1 µM)	–
CC(=O)NCC(Cc1ccc(C#Cc2ccc(CN3CCOCC3)cc2)cc1)c1nc[nH]c(=O)c1O (centres unmarked) [Compound 19, N-(2-(5-hydroxy-6-oxo-1,6-dihydropyrimidin-4-yl)-3-(4-((4-(morpholinomethyl)phenyl)ethynyl)phenyl)propyl)acetamide]	> 32	8 to 32 (≈ 16.4 to 65.8 µM)	1 to 8 (≈ 2.06 to 16.4 µM)	–
O=C(CF)NCC(Cc1ccc(C#Cc2ccc(CN3CC4CCC(C3)O4)cc2)cc1)c1nc[nH]c(=O)c1O (centres unmarked) [Compound 13, N-(3-(4-((4-((8-oxa-3-azabicyclo[3.2.1]octan-3-yl)methyl)phenyl)ethynyl)phenyl)-2-(5-hydroxy-6-oxo-1,6-dihydropyrimidin-4-yl)propyl)-2-fluoroacetamide]	–	–	–	MIC (S. aureus): > 32 µg/mL; MIC (K. pneumoniae): 1 to 8 µg/mL (≈ 1.88 to 15.1 µM); MIC (E. coli): 1 to 8 µg/mL (≈ 1.88 to 15.1 µM)
N#CC1CN(Cc2ccc(C#Cc3ccc(CCc4nc[nH]c(=O)c4O)cc3F)cc2)C1 [Compound 188, 1-(4-((2-fluoro-4-(2-(5-hydroxy-6-oxo-1,6-dihydropyrimidin-4-yl)ethyl)phenyl)ethynyl)benzyl)azetidine-3-carbonitrile]	> 32	1 to 8 (≈ 2.33 to 18.7 µM)	< 1	–
COCCNCc1ccc(C#Cc2ccc(CCc3nc[nH]c(=O)c3O)cc2)cc1 [Compound 245, 5-hydroxy-6-(4-((4-(((2-methoxyethyl)amino)methyl)phenyl)ethynyl)phenethyl)pyrimidin-4(3H)-one]	> 32	1 to 8 (≈ 2.48 to 19.8 µM)	< 1	–
O=C(CF)NCC(Cc1ccc(C#Cc2ccc(CCN3CCOCC3)cc2)cc1)c1nc[nH]c(=O)c1O (centres unmarked) [Compound 17, 2-fluoro-N-(2-(5-hydroxy-6-oxo-1,6-dihydropyrimidin-4-yl)-3-(4-((4-(2-morpholinoethyl)phenyl)ethynyl)phenyl)propyl) acetamide]	–	–	–	S. aureus MIC (S. aureus; [2]): D (D: >32 μg/mL); K. pneumoniae MIC (K. pneumoniae; [2]): C (C: >8.0 μg/mL to ≤32 μg/mL); E. coli MIC (E. coli; [2]): B (B: >1 μg/mL to ≤8.0 μg/mL)
O=C(CF)NCC(Cc1ccc(C#Cc2ccc(CCN3CCOCC3)cc2)cc1)c1nc[nH]c(=O)c1O (centres unmarked) [Compound 16, 2-fluoro-N-(2-(5-hydroxy-6-oxo-1,6-dihydropyrimidin-4-yl)-3-(4-((4-(2-morpholinoethyl)phenyl)ethynyl)phenyl)propyl)acetamide]	–	–	–	MIC (S. aureus): > 32 µg/mL; MIC (K. pneumoniae): 8 to 32 µg/mL (≈ 15.4 to 61.7 µM); MIC (E. coli): 1 to 8 µg/mL (≈ 1.93 to 15.4 µM)
C=CC(=O)NCC(Cc1ccc(C#Cc2ccc(CN3CCOCC3)cc2)cc1)c1nc[nH]c(=O)c1O (centres unmarked) [Compound 20, N-(2-(5-hydroxy-6-oxo-1,6-dihydropyrimidin-4-yl)-3-(4-((4-(morpholinomethyl)phenyl)ethynyl)phenyl)propyl)acrylamide]	> 32	8 to 32 (≈ 16 to 64.2 µM)	1 to 8 (≈ 2.01 to 16 µM)	–
O=C(CN1CCC1)NCC(Cc1ccc(C#Cc2ccc(CN3CCOCC3)cc2)cc1)c1nc[nH]c(=O)c1O (centres unmarked) [Compound 46, 2-(azetidin-1-yl)-N-(2-(5-hydroxy-6-oxo-1,6-dihydropyrimidin-4-yl)-3-(4-((4-(morpholinomethyl)phenyl)ethynyl)phenyl)propyl)acetamide]	> 32	> 32	> 32	–
N#CC1CCN(Cc2ccc(C#Cc3ccc(CC(C(=O)NCC(F)F)c4nc[nH]c(=O)c4O)cc3)cc2)C1 (centres unmarked) [Compound 102, 3-(4-((4-((3-cyanopyrrolidin-1-yl)methyl)phenyl)ethynyl)phenyl)-N-(2,2-difluoroethyl)-2-(5-hydroxy-6-oxo-1,6-dihydropyrimidin-4-yl)propanamide]	–	–	–	activity at 4 µg/mL [1]: 20 to 50%; activity at 8 µg/mL [1]: < 20%; activity at 16 µg/mL [1]: < 20%
O=C(NCCO)C(Cc1ccc(C#Cc2ccc(CN3CCOCC3)cc2)cc1)c1nc[nH]c(=O)c1O (centres unmarked) [Compound 7, 2-(5-hydroxy-6-oxo-1,6-dihydropyrimidin-4-yl)-N-(2-hydroxyethyl)-3-(4-((4-(morpholinomethyl)phenyl)ethynyl)phenyl) propanamide]	> 32	> 32	8 to 32 (≈ 15.9 to 63.7 µM)	–
COC(=O)NCC(Cc1ccc(C#Cc2ccc(CN3CC4CCC(C3)O4)cc2)cc1)c1nc[nH]c(=O)c1O (centres unmarked) [Compound 21, methyl (3-(4-((4-((8-oxa-3-azabicyclo[3.2.1]octan-3-yl)methyl)phenyl)ethynyl)phenyl)-2-(5-hydroxy-6-oxo-1,6-dihydropyrimidin-4-yl)propyl)carbamate]	> 32	8 to 32 (≈ 15.1 to 60.5 µM)	1 to 8 (≈ 1.89 to 15.1 µM)	–
O=C(Nc1cnoc1)C(Cc1ccc(C#Cc2ccc(CN3CCOCC3)cc2)cc1)c1nc[nH]c(=O)c1O (centres unmarked) [Compound 4, 2-(5-hydroxy-6-oxo-1,6-dihydropyrimidin-4-yl)-N-(isoxazol-4-yl)-3-(4-((4-(morpholinomethyl)phenyl)ethynyl)phenyl) propanamide]	> 32	> 32	1 to 8 (≈ 1.9 to 15.2 µM)	–
O=c1[nH]cnc(C(CNCCF)Cc2ccc(C#Cc3ccc(CN4CCOCC4)cc3)cc2)c1O (centres unmarked) [Compound 58, 6-(1-((2-fluoroethyl)amino)-3-(4-((4-(morpholinomethyl)phenyl)ethynyl)phenyl)propan-2-yl)-5-hydroxypyrimidin-4(3H)-one]	–	–	–	activity at 4 µg/mL [1]: < 20%; activity at 8 µg/mL [1]: < 20%; activity at 16 µg/mL [1]: < 20%
